Here are results for one compound from patent US12161726B2, “Biomimetic vesicles and uses thereof” (Ohio State Innovation Foundation, priority 2018, dated 2024).

Data set [1] concerns neointimal hyperplasia (IH) in balloon-injured carotid arteries. The experiment in a line: Morphometric analysis of neointima after carotid artery balloon angioplasty. Type of data set: in vivo, rat. Particulars: two i.v. injections (day 0 and 4), 14 days after angioplasty.
Method: Materials and Methods: Rat carotid artery balloon angioplasty. Carotid artery balloon angioplasty was performed in male Sprague-Dawley rats (Charles River; about 400 g) as previously described (5, 20). Briefly, rats were anesthetized with isoflurane (5% for inducing and 2.5% for maintaining anesthesia). A longitudinal incision was made in the neck and carotid arteries were exposed. A 2-F balloon catheter (Edwards Lifesciences, Irvine, CA) was inserted through an arteriotomy on the left external carotid artery. To produce arterial injury, the balloon was inflated at a pressure of 2 atm and withdrawn to the carotid bifurcation and this action was repeated three times. The external carotid artery was then permanently ligated, and blood flow was resumed. Drug-loaded biomimetic nanoclusters or compound solutions were injected via rat tail vein. […]
Materials and Methods: Morphometric analysis of neointima. […] Planimetric parameters as follows were measured on the sections and calculated using Image J: area inside external elastic lamina (EEL area), area inside internal elastic lamina (IEL area), lumen area, intima area (=IEL area−lumen area), and media area (=EEL area−IEL area). Intimal hyperplasia was quantified as a ratio of intima area versus media area. […] The means from all the animals in each treatment group were then averaged, and the standard error of the mean (SEM) was calculated. […]
For data set [2], the system named is pro-inflammatory activation of ECs and monocyte recruiting. The note with it: hypercholesterolemic murine model of atherosclerosis; cited from earlier work.
Another data set deals with human umbilical vein ECs. The note with it: cited from earlier work.
For the next data set, the system named is restenosis. The note with it: rat model, earlier study (ref 5); cited from earlier work.
The nature of data set [3]: In vitro drug release in PBS (dialysis bag). Type of data set: physicochemical. The note with it: from drug-loaded biomimetic nanoclusters, PBS pH 7.4, 37° C. How it is done: The in vitro drug release profiles from both rapamycin-loaded and JQ1-loaded biomimetic nanoclusters were studied in PBS (pH=7.4) (19). Briefly, drug-loaded biomimetic nanoclusters in the PBS (1 mg/mL, 5 mL) were enclosed in a cellulose membrane dialysis bag (molecular weight cut-off, 8 kDa). The dialysis bags were immersed in 100 mL of PBS, which was then kept in a horizontal laboratory shaker (100 rpm) at 37° C. At predetermined time intervals, 5 mL samples were collected and replaced with the same volume of PBS. The amounts of rapamycin and JQ1 in the collected samples were measured by HPLC and UV-Vis spectrometer, respectively, as indicated above.

Data set [4] in a line: Drug loading level (HPLC / UV-Vis). Particulars: drug loaded into nanoclusters. Type of data set: physicochemical. How it is done:
(d). Characterizations. 1H NMR spectra of all polymer products were recorded on a Varian Mercury Plus 300 spectrometer in DMSO-d6 or CDCl3 at 25° C. Molecular weights (Mn and Mw) and polydispersity indices (PDI) of the polymers were determined by a gel permeation chrornatographer (GPC) equipped with a refractive index detector, a viscometer detector, and a light scattering detector (Viscotek, USA), DMF with 0.01 M of LiBr was used as the mobile phase with. Fourier transform infrared (FT-IR) spectra were recorded on a Bruker Tensor 27 FT-IR spectrometer. The sizes and morphologies of the NPs were studied by dynamic light scattering (DLS, ZetaSizer Nano ZS90, Malvern Instruments, USA) and transmission electron microscopy (TEM, FEI Tecnai G2 F30 TWIN 300 KV, E.A, Fischione Instruments, Inc. USA). The zeta potentials were measured by ZetaSizer Nano ZS90 (Malvern Instruments, USA). The rapamycin loading level was measured by high-performance liquid chromatography (HPLC) using ultraviolet (UV) detection at 278 nm. The JQ1 loading level was measured by UV-Vis spectrometer at 323 nm.

On to `Cc1sc2c(c1C)C(c1ccc(Cl)cc1)=N[C@@H](CC(=O)OC(C)(C)C)c1nnc(C)n1-2` [JQ1], for which the “Effect on IH (I/M ratio)” value in data set [1] is given as “failed to mitigate IH”. In addition, in data set [2], the “Pro-inflammatory activation of ECs and monocyte recruiting in vivo” value is “inhibitory effects”. The “TNFα-induced pathogenic EC activation (E-selectin, VCAM1, NF-κB translocation)” value with human umbilical vein ECs was “inhibits TNFα-induced pathogenic EC activation”. In addition, the Inhibition of restenosis entry with restenosis is reported as “effective inhibitor of restenosis”. In addition, in data set [3], the “In vitro drug release profile” value is “released in a sustainable manner without a burst release”. Besides, the Drug loading level in data set [4] amounted to 21.5%.
